Data as given in ChEMBL document CHEMBL5058643, “Data for DCP probe BI-2081” (2022).

Key:
[1] = target: Sodium-dependent serotonin transporter (Homo sapiens) (UniProt P31645); settings: Compound concentration 10.0 uM
[2] = target: 3',5'-cyclic-AMP phosphodiesterase 4D (Homo sapiens) (UniProt Q08499); experiment: PDE4D2 Eurofins SafetyScreen44 (BI); settings: Compound concentration 10.0 uM
[3] = target: D(2) dopamine receptor (Homo sapiens) (UniProt P14416); settings: Compound concentration 10.0 uM
[4] = target: 5-hydroxytryptamine receptor 1B (Homo sapiens) (UniProt P28222); settings: Compound concentration 10.0 uM
[5] = target: Vasopressin V1a receptor (Homo sapiens) (UniProt P37288); experiment: V1A/HUM Eurofins SafetyScreen44 (BI); settings: Compound concentration 10.0 uM
[6] = target: 5-hydroxytryptamine receptor 6 (Homo sapiens) (UniProt P50406); settings: Compound concentration 10.0 uM
[7] = target: Neuronal acetylcholine receptor; alpha4/beta2 (Homo sapiens) (UniProt P17787+P43681); experiment: N_NEURO_A4B2 Eurofins SafetyScreen44 (BI); format: protein-complex assay; settings: filed as agonist, Compound concentration 10.0 uM
[8] = target: 5-hydroxytryptamine receptor 5A (Homo sapiens) (UniProt P47898); settings: Compound concentration 10.0 uM
[9] = target: Beta-2 adrenergic receptor (Homo sapiens) (UniProt P07550); settings: Compound concentration 10.0 uM
[10] = target: Delta-type opioid receptor (Homo sapiens) (UniProt P41143); settings: Compound concentration 10.0 uM
[11] = target: Gamma-aminobutyric acid receptor subunit alpha-1 (Rattus norvegicus) (UniProt P62813); experiment: BZD/CENTR/R Eurofins SafetyScreen44 (BI); settings: Compound concentration 10.0 uM
[12] = target: Cannabinoid receptor 2 (Homo sapiens) (UniProt P34972); experiment: CB2/PERIPH/H Eurofins SafetyScreen44 (BI); settings: Compound concentration 10.0 uM
Rattus norvegicus = species: Rattus norvegicus; settings: Compound concentration 10.0 uM
[13] = target: 5-hydroxytryptamine receptor 2C (Homo sapiens) (UniProt P28335); settings: Compound concentration 10.0 uM
[14] = target: T1, Alpha-2A adrenergic receptor (Homo sapiens) (UniProt P08913); settings: Compound concentration 10.0 uM
T1 sequence (whole entry): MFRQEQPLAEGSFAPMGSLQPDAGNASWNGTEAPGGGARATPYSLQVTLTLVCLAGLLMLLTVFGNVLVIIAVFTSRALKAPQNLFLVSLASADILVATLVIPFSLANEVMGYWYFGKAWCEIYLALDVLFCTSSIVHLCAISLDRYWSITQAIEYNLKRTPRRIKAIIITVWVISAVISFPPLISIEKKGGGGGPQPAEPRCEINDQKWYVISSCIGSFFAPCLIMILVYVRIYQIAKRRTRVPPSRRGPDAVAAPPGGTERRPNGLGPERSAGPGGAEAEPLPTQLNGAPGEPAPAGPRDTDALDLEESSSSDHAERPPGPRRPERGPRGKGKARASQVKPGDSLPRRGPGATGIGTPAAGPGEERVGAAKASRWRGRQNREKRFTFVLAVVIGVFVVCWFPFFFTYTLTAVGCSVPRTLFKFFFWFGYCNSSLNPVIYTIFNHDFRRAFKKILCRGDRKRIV

[15] = target: 5-hydroxytryptamine receptor 2B (Homo sapiens) (UniProt P41595); experiment: 5HT2B/H AG Eurofins SafetyScreen44 (BI); settings: filed as agonist, Compound concentration 10.0 uM
[16] = target: T2, Muscarinic acetylcholine receptor M1 (Homo sapiens) (UniProt P11229); experiment: M1/H Eurofins SafetyScreen44 (BI); settings: Compound concentration 10.0 uM
T2 sequence (whole entry): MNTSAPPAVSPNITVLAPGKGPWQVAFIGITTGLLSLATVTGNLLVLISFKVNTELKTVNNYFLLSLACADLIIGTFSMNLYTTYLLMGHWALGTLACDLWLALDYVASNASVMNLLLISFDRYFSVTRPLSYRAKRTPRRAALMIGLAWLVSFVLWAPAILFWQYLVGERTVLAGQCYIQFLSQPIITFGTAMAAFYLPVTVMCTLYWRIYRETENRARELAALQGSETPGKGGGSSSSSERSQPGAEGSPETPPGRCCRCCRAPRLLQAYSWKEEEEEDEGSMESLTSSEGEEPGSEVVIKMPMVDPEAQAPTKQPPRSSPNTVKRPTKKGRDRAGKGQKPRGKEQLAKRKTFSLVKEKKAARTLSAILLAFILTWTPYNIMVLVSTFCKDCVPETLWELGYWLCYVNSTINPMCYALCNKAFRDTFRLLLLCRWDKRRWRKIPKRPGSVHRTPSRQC

[17] = target: Estrogen receptor (Homo sapiens) (UniProt P03372); experiment: ERALPHA/H Eurofins SafetyScreen44 (BI); settings: Compound concentration 10.0 uM
[18] = target: Histamine H3 receptor (Homo sapiens) (UniProt Q9Y5N1); experiment: H3/H Eurofins SafetyScreen44 (BI); settings: Compound concentration 10.0 uM
[19] = target: GABA-A receptor; anion channel; experiment: GPCRScan assay: inhibition of GABAA/BZP; format: protein-complex assay, Rattus norvegicus; set-up: radioligand conc. used [nm] 0.6 – 4.0, parental cells brain tissue
[20] = target: Voltage-dependent L-type calcium channel subunit alpha-1C (Rattus norvegicus, UniProt P22002); experiment: CA+/DHPSI/RA Eurofins SafetyScreen44 (BI); settings: compound concentration 10 uM, read-out: % Ctrl
[21] = target: 3',5'-cyclic-AMP phosphodiesterase 4A (Rattus norvegicus) (UniProt P54748); experiment: ROLIPRAM/R Eurofins SafetyScreen44 (BI); settings: Compound concentration 10.0 uM
[22] = target: Beta-2 adrenergic receptor (Homo sapiens) (UniProt P07550); experiment: BETA2/HU Eurofins SafetyScreen44 (BI); settings: Compound concentration 10.0 uM
[23] = target: D(3) dopamine receptor (Homo sapiens) (UniProt P35462); experiment: D3/HU Eurofins SafetyScreen44 (BI); settings: Compound concentration 10.0 uM
[24] = target: P2Y purinoceptor 1 (Rattus norvegicus) (UniProt P49651); experiment: P2Y/RAT Eurofins SafetyScreen44 (BI); settings: Compound concentration 10.0 uM
[25] = target: B1 bradykinin receptor (Homo sapiens) (UniProt P46663); experiment: B1/H Eurofins SafetyScreen44 (BI); settings: Compound concentration 10.0 uM
[26] = target: Histamine H1 receptor (Homo sapiens) (UniProt P35367); experiment: H1/H Eurofins SafetyScreen44 (BI)
Sequence of Histamine H1 receptor (Homo sapiens) (P35367 whole entry): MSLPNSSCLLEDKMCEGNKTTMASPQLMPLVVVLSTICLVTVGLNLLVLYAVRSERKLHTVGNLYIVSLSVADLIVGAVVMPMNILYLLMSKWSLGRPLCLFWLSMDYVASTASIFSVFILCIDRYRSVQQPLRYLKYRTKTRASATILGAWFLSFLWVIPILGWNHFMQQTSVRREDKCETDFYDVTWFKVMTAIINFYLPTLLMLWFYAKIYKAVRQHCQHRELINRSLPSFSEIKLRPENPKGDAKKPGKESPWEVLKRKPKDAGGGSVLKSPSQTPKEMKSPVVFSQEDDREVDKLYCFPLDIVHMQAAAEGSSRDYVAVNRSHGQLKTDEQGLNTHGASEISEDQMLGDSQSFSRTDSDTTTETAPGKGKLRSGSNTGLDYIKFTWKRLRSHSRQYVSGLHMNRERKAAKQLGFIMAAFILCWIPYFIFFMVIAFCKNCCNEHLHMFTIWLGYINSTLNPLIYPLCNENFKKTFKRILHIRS

Sequence of 5-hydroxytryptamine receptor 5A (Homo sapiens) (P47898 whole entry): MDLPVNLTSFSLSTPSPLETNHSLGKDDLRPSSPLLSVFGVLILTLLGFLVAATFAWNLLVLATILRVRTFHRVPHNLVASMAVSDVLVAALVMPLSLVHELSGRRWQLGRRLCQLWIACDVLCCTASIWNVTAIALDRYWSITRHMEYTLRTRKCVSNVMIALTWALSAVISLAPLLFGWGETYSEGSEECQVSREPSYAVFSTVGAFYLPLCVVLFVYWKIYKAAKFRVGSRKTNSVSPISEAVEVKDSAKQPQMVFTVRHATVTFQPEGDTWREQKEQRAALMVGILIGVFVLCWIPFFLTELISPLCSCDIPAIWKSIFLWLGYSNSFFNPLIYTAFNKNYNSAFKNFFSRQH
Sequence of 5-hydroxytryptamine receptor 2C (Homo sapiens) (P28335 whole entry): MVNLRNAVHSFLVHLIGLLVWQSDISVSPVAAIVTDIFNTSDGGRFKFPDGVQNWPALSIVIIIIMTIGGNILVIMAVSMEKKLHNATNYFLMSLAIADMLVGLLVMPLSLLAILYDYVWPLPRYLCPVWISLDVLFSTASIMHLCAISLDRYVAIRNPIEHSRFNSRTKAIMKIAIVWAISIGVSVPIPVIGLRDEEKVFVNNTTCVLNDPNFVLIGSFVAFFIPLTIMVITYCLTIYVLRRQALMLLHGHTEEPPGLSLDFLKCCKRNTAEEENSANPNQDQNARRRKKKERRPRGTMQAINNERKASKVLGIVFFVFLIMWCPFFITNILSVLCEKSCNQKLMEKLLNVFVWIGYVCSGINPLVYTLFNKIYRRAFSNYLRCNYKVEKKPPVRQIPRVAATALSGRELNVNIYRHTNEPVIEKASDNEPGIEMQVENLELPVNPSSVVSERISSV
Sequence of 5-hydroxytryptamine receptor 6 (Homo sapiens) (P50406 whole entry): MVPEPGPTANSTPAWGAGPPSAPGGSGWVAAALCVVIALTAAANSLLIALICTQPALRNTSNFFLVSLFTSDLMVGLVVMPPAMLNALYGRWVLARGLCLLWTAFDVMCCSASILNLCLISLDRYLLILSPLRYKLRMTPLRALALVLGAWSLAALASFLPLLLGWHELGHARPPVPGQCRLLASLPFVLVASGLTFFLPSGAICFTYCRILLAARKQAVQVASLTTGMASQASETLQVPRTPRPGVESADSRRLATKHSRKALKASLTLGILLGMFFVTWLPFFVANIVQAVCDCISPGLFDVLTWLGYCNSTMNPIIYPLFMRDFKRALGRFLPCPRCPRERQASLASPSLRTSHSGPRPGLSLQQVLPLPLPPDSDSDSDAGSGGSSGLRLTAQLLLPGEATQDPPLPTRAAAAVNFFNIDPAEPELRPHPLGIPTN
Sequence of Sodium-dependent serotonin transporter (Homo sapiens) (P31645 whole entry, looked up): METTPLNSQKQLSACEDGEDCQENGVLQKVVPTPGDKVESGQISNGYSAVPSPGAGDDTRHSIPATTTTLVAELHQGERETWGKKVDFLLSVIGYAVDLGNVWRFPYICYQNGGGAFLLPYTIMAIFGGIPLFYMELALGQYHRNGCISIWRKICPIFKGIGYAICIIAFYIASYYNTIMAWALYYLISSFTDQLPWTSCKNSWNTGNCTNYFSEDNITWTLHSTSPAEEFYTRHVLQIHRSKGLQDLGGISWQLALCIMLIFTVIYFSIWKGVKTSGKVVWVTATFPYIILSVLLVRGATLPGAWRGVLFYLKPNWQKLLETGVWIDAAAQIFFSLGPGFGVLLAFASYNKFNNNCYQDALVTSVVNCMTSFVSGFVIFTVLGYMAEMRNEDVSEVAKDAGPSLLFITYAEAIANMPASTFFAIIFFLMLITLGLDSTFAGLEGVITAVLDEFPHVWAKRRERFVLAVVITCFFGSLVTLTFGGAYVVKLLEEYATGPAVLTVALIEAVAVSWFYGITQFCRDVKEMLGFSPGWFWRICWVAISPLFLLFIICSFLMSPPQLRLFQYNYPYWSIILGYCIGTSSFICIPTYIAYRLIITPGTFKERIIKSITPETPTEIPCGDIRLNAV
Sequence of D(2) dopamine receptor (Homo sapiens) (P14416 whole entry): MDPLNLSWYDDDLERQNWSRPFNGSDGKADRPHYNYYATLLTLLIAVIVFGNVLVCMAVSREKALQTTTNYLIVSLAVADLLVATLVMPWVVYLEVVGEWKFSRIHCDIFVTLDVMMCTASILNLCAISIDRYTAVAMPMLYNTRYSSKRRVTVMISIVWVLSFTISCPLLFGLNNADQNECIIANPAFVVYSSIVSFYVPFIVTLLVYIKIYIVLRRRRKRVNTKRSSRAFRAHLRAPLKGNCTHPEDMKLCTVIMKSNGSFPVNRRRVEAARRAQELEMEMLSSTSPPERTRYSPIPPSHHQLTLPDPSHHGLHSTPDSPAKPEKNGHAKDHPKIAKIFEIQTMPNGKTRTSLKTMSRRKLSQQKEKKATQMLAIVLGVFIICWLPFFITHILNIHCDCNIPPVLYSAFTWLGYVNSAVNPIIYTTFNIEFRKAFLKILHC
Sequence of 5-hydroxytryptamine receptor 1B (Homo sapiens) (P28222 whole entry): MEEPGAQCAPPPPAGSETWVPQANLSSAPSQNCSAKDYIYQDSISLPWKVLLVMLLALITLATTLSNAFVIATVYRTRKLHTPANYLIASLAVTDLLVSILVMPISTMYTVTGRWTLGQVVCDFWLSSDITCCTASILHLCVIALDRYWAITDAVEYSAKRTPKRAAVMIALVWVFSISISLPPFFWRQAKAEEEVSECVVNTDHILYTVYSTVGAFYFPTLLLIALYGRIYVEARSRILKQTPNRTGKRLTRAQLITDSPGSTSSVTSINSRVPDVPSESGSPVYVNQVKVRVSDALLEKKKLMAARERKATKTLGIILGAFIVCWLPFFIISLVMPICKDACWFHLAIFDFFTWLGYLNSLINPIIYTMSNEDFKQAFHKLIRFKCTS
Sequence of Delta-type opioid receptor (Homo sapiens) (P41143 whole entry): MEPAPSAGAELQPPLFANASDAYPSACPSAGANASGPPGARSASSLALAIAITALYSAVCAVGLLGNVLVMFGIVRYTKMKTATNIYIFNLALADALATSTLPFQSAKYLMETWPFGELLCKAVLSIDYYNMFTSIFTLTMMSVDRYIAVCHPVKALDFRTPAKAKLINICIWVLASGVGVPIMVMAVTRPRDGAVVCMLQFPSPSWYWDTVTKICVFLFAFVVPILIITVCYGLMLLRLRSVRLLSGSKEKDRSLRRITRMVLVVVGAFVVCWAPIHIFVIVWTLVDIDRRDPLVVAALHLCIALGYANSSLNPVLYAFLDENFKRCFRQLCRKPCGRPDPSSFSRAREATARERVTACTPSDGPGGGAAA
Sequence of Beta-2 adrenergic receptor (Homo sapiens) (P07550 whole entry, looked up): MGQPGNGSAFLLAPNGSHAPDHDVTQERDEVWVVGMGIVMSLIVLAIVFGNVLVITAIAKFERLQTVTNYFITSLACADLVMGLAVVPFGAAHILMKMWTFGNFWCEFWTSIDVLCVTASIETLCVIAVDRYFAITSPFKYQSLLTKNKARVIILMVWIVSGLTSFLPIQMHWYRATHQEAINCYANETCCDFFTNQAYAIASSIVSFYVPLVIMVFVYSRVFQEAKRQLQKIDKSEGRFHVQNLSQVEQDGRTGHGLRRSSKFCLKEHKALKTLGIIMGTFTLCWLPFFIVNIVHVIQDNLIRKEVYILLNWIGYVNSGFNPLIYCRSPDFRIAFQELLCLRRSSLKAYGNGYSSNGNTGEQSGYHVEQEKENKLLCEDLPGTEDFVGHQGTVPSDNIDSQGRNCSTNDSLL
Sequence of P2Y purinoceptor 1 (Rattus norvegicus) (P49651 whole entry): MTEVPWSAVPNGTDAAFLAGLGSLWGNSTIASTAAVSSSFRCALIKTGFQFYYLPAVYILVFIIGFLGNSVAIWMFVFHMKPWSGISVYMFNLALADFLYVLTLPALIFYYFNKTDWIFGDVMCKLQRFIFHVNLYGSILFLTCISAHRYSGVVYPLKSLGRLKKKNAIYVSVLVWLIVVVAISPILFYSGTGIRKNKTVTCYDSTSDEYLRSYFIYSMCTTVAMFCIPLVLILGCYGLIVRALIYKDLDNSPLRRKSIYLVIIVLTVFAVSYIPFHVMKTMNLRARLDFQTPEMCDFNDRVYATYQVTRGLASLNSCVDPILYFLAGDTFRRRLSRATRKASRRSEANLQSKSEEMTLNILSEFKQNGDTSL
Sequence of Histamine H3 receptor (Homo sapiens) (Q9Y5N1 whole entry): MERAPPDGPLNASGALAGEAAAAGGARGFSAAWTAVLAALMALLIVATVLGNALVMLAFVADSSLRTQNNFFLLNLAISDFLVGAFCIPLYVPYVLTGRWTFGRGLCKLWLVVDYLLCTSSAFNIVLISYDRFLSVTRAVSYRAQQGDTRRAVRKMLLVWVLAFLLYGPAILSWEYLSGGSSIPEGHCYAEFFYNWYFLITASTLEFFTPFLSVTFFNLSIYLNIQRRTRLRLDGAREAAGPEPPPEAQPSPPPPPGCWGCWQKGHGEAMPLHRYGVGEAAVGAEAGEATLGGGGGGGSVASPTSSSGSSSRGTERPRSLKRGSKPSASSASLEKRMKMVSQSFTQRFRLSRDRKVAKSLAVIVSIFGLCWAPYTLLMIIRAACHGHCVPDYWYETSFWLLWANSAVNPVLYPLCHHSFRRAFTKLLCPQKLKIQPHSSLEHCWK

## COCCCS(=O)(=O)c1cc(C)c(-c2ccc(F)c3c2CC[C@H]3Oc2ccc3c(c2)OC[C@H]3CC(=O)O)c(C)c1
[1]
  inhibition: -1.62%
[2]
  residual activity: 103%
[3]
  inhibition: 8.15%
[4]
  inhibition: 5.08%
[5]
  residual activity: 90%
[6]
  inhibition: -8.04%
[7]
  residual activity: 112%
[8]
  inhibition: 9.98%
[9]
  inhibition: 2.56%
[10]
  inhibition: 20.8%
[11]
  residual activity: 109%
[12]
  residual activity: 115%
Rattus norvegicus
  inhibition: 36.1%
[13]
  inhibition: 2.87%
[14]
  inhibition: 5.14%
[15]
  residual activity: 103%
[16]
  residual activity: 112%

## Cc1cc(OCCC(C)(C)O)cc(C)c1-c1ccc(F)c2c1CC[C@H]2Oc1ccc2c(c1)OC[C@H]2CC(=O)O
[17]
  residual activity: 103%
[18]
  residual activity: 111%
[19]
  Ki: > 10 µM
  pKi: < 5
[20]
  activity at 10 µM: 90% (not active)
[1]
  inhibition: 4.25%
[21]
  residual activity: 105%
[3]
  inhibition: 3.28%
[22]
  residual activity: 109%
[4]
  inhibition: 18.6%
[6]
  inhibition: -2.53%
[23]
  residual activity: 63%
[24]
  residual activity: 87%
[8]
  inhibition: 5.48%
[10]
  inhibition: 24.4%
[25]
  residual activity: 91%
[26]; Compound concentration 0.3 uM
  residual activity: 90%
[26]; Compound concentration 1.0 uM
  residual activity: 87%
[26]; Compound concentration 3.0 uM
  residual activity: 68%
[26]; Compound concentration 10.0 uM
  residual activity: 39%
[26]; Compound concentration 30.0 uM
  residual activity: 17%
Rattus norvegicus
  inhibition: 40.4%
[13]
  inhibition: -4.94%
[14]
  inhibition: 16.6%
